Data: paper PMC8674134, “Safety and efficacy of avapritinib in advanced systemic mastocytosis: the phase 1 EXPLORER trial” (Nature Medicine, 2021)

Experiments:
[1] = test system: patients with AdvSM and other myeloid malignancies; test: Safety: adverse events graded by NCI CTCAE v4.03, phase 1 EXPLORER trial; format: in vivo
Text: The safety population included all enrolled patients and was used to report AEs and PROs (in those who completed the questionnaire). The dose-determining population included all patients in a cohort in part 1 who received ≥21 prescribed avapritinib doses in C1 and completed follow-up through C1, or experienced DLT. The determination of the MTD and RP2D were based on the dose-determining population. […] The AdvSM safety population was also used to report AEs and OS. […] The response-evaluable population was used to report adjudicated response rates and PFS. The PK population comprised all patients with sufficient plasma concentration–time data to reliably estimate the PK parameters of avapritinib.
Safety assessments included determination of ECOG performance status, clinical laboratory testing, vital signs, electrocardiograms, brain imaging (MRI or CT scan) and physical examinations. AEs were graded according to National Cancer Institute Common Terminology Criteria (v4.03)[40]. Treatment-emergent AEs were defined as any AE occurring between the first dose of avapritinib through 30 d after the last dose of avapritinib, any event that was considered related to the study drug regardless of the start date of the event, or any event that was present at baseline but worsened intensity or was subsequently considered related to the study drug by the investigator.

[2] = test system: mast cell burden in patients with AdvSM; test: Changes in measures of mast cell burden (BM mast cells, serum tryptase, spleen volume); format: in vivo, human
Procedure: Other secondary endpoints included PK, DOR and changes in measures of mast cell burden (percentage of BM mast cells, serum tryptase concentration, KIT D816V VAF by ddPCR (detection limit 0.17%), and spleen and liver volumes). PROs were measured by daily completion of AdvSM-SAF (described below) for patients in part 2 as a secondary outcome[37]–[39]. Exploratory endpoints included time to response, PFS and OS.
The percentage change from baseline in spleen and liver volume as measured by central radiographic assessment using an MRI or a CT scan was summarized over time in the safety population. In addition, maximum percentage reduction was presented in waterfall plots.
Responses were assessed according to the protocol schedule. Spleen size was assessed by palpation and by imaging with calculation of volume centrally. KIT D816V VAF in the BM (or in blood if unavailable) was centrally measured using a validated ddPCR assay with a lower limit of detection of 0.17% (Bio-Rad). Other somatic mutations in BM were centrally assayed at baseline by next-generation sequencing.

[3] = test system: advanced systemic mastocytosis (AdvSM); test: Kaplan–Meier estimates of DOR, PFS and OS; format: in vivo, human
Procedure: Spleen response was determined for patients with baseline splenomegaly (spleen ≥ 5 cm by palpation) and was assessed by palpation or spleen volume by imaging (that is, ≥35% reduction from baseline in spleen volume based on central imaging); presence of either criterion was considered a response. DOR started at the first evidence of a response in any evaluable C-finding (per mIWG-MRT-ECNM criteria) and ended at the time a response was lost (that is, loss of response per mIWG-MRT-ECNM criteria). For patients who were still responding at the time of analysis, DOR was censored at the latest time point that the patient is assessed as having clinical improvement or better. OS was analyzed in the safety population and was defined as the time from first dose to the time of death due to any cause. PK data were summarized for patients with sufficient plasma concentration–time data. Descriptive statistics were used to summarize PK parameters for each dose level, as appropriate.
ORR was defined as the proportion of patients with a confirmed best response of CR, CRh, PR or clinical improvement by mIWG-MRT-ECNM consensus criteria. Time to CR/CRh/PR was defined as the time from the start of treatment to the time a CR/CRh/PR by mIWG-MRT-ECNM was first met. DOR was defined as the time from first documented response to the date of first documented progressive disease/loss of response or death due to any cause, whichever occurred first. OS was defined as the time from the start of treatment to the date of death. PFS was defined as the time from the start of treatment to the date of first documented progressive disease or death due to any cause, whichever occurred first. Progressive disease was defined per mIWG-MRT-ECNM criteria as worsening of ≥1 baseline C-finding confirmed for at least 4 weeks, or progression to acute myeloid leukemia.
OS, PFS and DOR were determined by Kaplan–Meier estimates, and 95% CIs were estimated using Greenwood’s formula[41]. Comparisons between two Kaplan–Meier functions was performed using a log-rank test.

SM-associated symptoms = test: On-study corticosteroid usage; format: in vivo, human
Procedure: At baseline, approximately one-third of patients overall (29 patients; 34%) were using corticosteroids. After baseline, as a result of improvement in SM-associated symptoms, 19 patients (66%) reduced their corticosteroid usage, of whom 12 (41%) patients discontinued corticosteroid use entirely, while 7 (24%) were able to reduce the dose.
Corticosteroid treatment, not exceeding doses administered during screening, was permitted; doses higher than 20 mg daily prednisone equivalent were avoided, and prolonged treatment (>14 d) with high-dose corticosteroids rendered patients ineligible for response assessment.

SMILES: Cn1cc(-c2cc3c(N4CCN(c5ncc([C@@](C)(N)c6ccc(F)cc6)cn5)CC4)ncnn3c2)cn1 [avapritinib]
- Arthralgia AE, patients ([1]; human, in vivo): 3%
- Cognitive effects (memory impairment, cognitive disorder, confusional state and encephalopathy), patients ([1]; human, in vivo): 30%
- Cognitive effects leading to treatment discontinuation, patients ([1]; human, in vivo): 3%
- Discontinuation due to related AEs ([1]; human, in vivo): 10%
- Discontinuation due to unrelated AEs ([1]; human, in vivo): 9%
- Grade 1 skin hypopigmentation, patients ([1]; human, in vivo): 3%
- Hair color changes, patients ([1]; human, in vivo): 19%
- Hypokalemia AE, patients ([1]; human, in vivo): 3%
- Intracranial bleeding (ICB) in the absence of prior severe thrombocytopenia (platelets <50 × 10^9/l), patients ([1]; human, in vivo): 1%
- Intracranial bleeding (ICB), patients ([1]; human, in vivo): 13%
- Intracranial bleeding: cerebral hemorrhage ([1]; human, in vivo): 0 n (%)
- Median time to first dose reduction ([1]; human, in vivo): 8 weeks
- Patients with at least one dose reduction due to AEs ([1]; human, in vivo): 72%
- Peripheral edema AE, patients ([1]; human, in vivo): 45%
- Anaphylactic reaction ([1]; in vivo): one
- ICB events associated with antecedent severe thrombocytopenia (platelet count <50 × 10^9/l) ([1]; in vivo): seven
- ICB events, asymptomatic (grade 1) ([1]; in vivo): Five
- ICB events, grade 2 ([1]; in vivo): two
- ICB events, grade 3 ([1]; in vivo): one
- ICB events, grade 5 ([1]; of nine patients with ICB, associated with head trauma): one
- Deaths due to AEs ([1]; one (ICB) considered treatment related): six
- Patients with spleen volume reduced by ≥35% ([2]; 66 patients with a baseline spleen volume assessment): 82%
- Patients with BM mast cells decreased by ≥50% ([2]; patients with AdvSM): 92%
- Patients with mast cell aggregates eliminated ([2]; patients with AdvSM): 77%
- Patients with serum tryptase reduced by ≥50% ([2]; patients with AdvSM): 99%
- Patients with serum tryptase reduced to <20 ng ml^−1 ([2]; patients with AdvSM): 74%
- Median duration of response (DOR) ([3]; 95% CI, 22 months–not estimable): 38 months
- Estimated 24-month DOR rate ([3]; 95% CI, 49–84%): 67%
- Estimated 12-month DOR rate ([3]; 95% CI, 72–96%): 84%
- Median OS ([3]; AdvSM safety population (n = 69), median follow-up 23 months): not reached
- Estimated 24-month OS rate ([3]; overall AdvSM, 95% CI, 64–87%): 76%
- Estimated 24-month OS rate ([3]; patients with ASM): 100%
- Estimated 24-month OS rate ([3]; patients with MCL, 95% CI, 76–100%): 92%
- Estimated 24-month OS rate ([3]; patients with SM-AHN): 67%
- OS (24-month OS rate) ([3]; patients with a MARS of 0–1, post hoc): 100%
- Estimated PFS rate at 24 months ([3]; response-evaluable population (n = 53), 95% CI, 48–79%): 63%
- Estimated PFS rate at 12 months ([3]; response-evaluable population (n = 53), 95% CI, 73–94%): 84%
- Patients who progressed to acute myeloid leukemia ([3]; six patients, during the study): 9%
- Patients able to reduce the corticosteroid dose (SM-associated symptoms; 7 of 29 patients using corticosteroids at baseline): 24%
- Patients who discontinued corticosteroid use entirely (SM-associated symptoms; 12 of 29 patients using corticosteroids at baseline): 41%
- Patients who reduced their corticosteroid usage (SM-associated symptoms; 19 of 29 patients using corticosteroids at baseline): 66%
